One experiment addresses T1, human SCD5 (Homo sapiens, UniProt Q86SK9).
T1 construct: expressed in transfected cells; host or cells: yeast strain with OLE1 deleted, plasmid-borne human SCD5 (selected in SD-Ura)
T1 sequence (Q86SK9 1-330): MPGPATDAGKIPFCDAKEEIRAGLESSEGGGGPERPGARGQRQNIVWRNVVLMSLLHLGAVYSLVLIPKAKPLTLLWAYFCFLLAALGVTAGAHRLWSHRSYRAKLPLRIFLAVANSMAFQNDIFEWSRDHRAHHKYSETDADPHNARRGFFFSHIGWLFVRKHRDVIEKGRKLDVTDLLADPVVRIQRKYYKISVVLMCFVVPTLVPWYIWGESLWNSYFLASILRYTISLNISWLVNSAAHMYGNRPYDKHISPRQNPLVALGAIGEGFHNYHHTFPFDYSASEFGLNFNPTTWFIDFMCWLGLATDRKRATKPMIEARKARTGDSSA
Put plainly: Growth inhibition of yeast strain expressing human SCD5 as sole desaturase (OLE1 deleted), OD600 readout. Type of experiment: cell-based. As to conditions: yeast strain expressing human SCD5 as sole desaturase; growth (OD600) after 40 h at 30° C.; read-out: SCD5 IC50.

In another experiment the target is T2, human SCD1 (Homo sapiens, UniProt O00767).
T2 construct: expressed in transfected cells; host or cells: yeast strain with OLE1 deleted, plasmid-borne human SCD1 (selected in SD-Ura)
T2 sequence (O00767 1-359): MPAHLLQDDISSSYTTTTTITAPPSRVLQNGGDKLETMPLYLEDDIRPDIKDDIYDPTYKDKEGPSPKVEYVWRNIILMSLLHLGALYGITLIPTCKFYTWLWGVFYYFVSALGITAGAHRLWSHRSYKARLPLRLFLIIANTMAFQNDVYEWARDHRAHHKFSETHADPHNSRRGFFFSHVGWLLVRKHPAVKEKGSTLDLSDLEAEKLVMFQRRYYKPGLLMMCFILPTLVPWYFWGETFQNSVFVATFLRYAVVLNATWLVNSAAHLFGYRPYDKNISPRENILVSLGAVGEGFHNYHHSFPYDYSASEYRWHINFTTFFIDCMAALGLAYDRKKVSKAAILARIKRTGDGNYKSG
Put plainly: Growth inhibition of yeast strain expressing human SCD1 as sole desaturase (OLE1 deleted), OD600 readout. It is filed as cell-based. As to conditions: yeast strain expressing human SCD1 as sole desaturase; growth (OD600) after 40 h at 30° C.; read-out: SCD1 IC50.

One may read the IC50 as the concentration at which inhibition is half-maximal. Turning to `O=C(Nc1ccc(Cc2cccc(F)c2)nn1)c1ccc(=O)n(C2CC2)n1` [Compound 178, 1-cyclopropyl-N-{6-[(3-fluorophenyl)methyl]pyridazin-3-yl}-6-oxo-1,6-dihydropyridazine-3-carboxamide], the IC50 on human SCD5 came out at 0.77 µM; at human SCD1, 6.67 µM.

Take `CN1N=C(C(=O)Nc2ccc(Cc3ccc(F)c(Cl)c3)nn2)CCC1=O` [Compound 179, N-(6-(3-chloro-4-fluorobenzyl)pyridazin-3-yl)-1-methyl-6-oxo-1,4,5,6-tetrahydropyridazine-3-carboxamide]: the values for the IC50 on human SCD5 and on human SCD1 were 1.03 µM and over 45 µM, respectively.

Consider `Cn1nc(C(=O)Nc2ccc(Cc3ccc(F)c(Cl)c3)nn2)ccc1=O` [Compound 180, N-(6-(3-chloro-4-fluorobenzyl)pyridazin-3-yl)-1-methyl-6-oxo-1,6-dihydropyridazine-3-carboxamide], for which the values for the IC50 at human SCD5 and at human SCD1 were 0.91 µM and 6.02 µM, respectively.

Turning to `CN1N=C(C(=O)Nc2ccc(COc3cccc(Cl)c3)nn2)CCC1=O` [Compound 181, N-(6-((3-chlorophenoxy)methyl)pyridazin-3-yl)-1-methyl-6-oxo-1,4,5,6-tetrahydropyridazine-3-carboxamide], the IC50 on human SCD5 was 1.22 µM; on human SCD1 it was over 45 µM.

Take `Cn1cc(C(=O)Nc2ccc(Cc3cccc(Cl)c3)nn2)ccc1=O` [Compound 183, N-(6-(3-chlorobenzyl)pyridazin-3-yl)-1-methyl-6-oxo-1,6-dihydropyridine-3-carboxamide]: the 50% inhibitory concentration (IC50) on human SCD5 amounted to 1.41 µM; at human SCD1, 10.7 µM.

On to `CCn1cc(C(=O)Nc2ccc(Cc3cccc(Cl)c3)nn2)ccc1=O` [Compound 184, N-(6-(3-chlorobenzyl)pyridazin-3-yl)-1-ethyl-6-oxo-1,6-dihydropyridine-3-carboxamide], for which the results for the IC50 at human SCD5 and on human SCD1 were 28.9 µM and over 45 µM, respectively.

In the case of `CCn1nc(C(=O)Nc2ccc(Cc3cccc(Cl)c3)nn2)ccc1=O` [Compound 185, N-(6-(3-chlorobenzyl)pyridazin-3-yl)-1-ethyl-6-oxo-1,6-dihydropyridazine-3-carboxamide], the IC50 was 8.59 µM at human SCD5 and over 45 µM at human SCD1.

For the molecule `CN1N=C(C(=O)Nc2ccc(Cc3ccccc3)nn2)CCC1=O` [Compound 186, N-(6-benzylpyridazin-3-yl)-1-methyl-6-oxo-1,4,5,6-tetrahydropyridazine-3-carboxamide], the IC50 is 12.6 µM on human SCD5 and over 45 µM on human SCD1.

Consider `CN1N=C(C(=O)Nc2ccc(Cc3cccc(C4CC4)c3)nn2)CCC1=O` [Compound 187, N-(6-(3-cyclopropylbenzyl)pyridazin-3-yl)-1-methyl-6-oxo-1,4,5,6-tetrahydropyridazine-3-carboxamide], for which the IC50 was 6.51 µM on human SCD5 and over 45 µM on human SCD1.

For `CN1N=C(C(=O)Nc2ccc(Cc3ccc(Cl)c(Cl)c3)nn2)CCC1=O` [Compound 188, N-(6-(3,4-dichlorobenzyl)pyridazin-3-yl)-1-methyl-6-oxo-1,4,5,6-tetrahydropyridazine-3-carboxamide], the figures for the half-inhibitory concentration (IC50) at human SCD5 and at human SCD1 were 0.19 µM and 4.4 µM, respectively.

Consider `Cn1cc(NC(=O)c2ccc(Cc3cccc(Cl)c3)nn2)ccc1=O` [Compound 189, 6-(3-chlorobenzyl)-N-(1-methyl-6-oxo-1,6-dihydropyridin-3-yl)pyridazine-3-carboxamide], for which the results for the IC50 at human SCD5 and at human SCD1 were 5.07 µM and over 45 µM, respectively.

For the molecule `CN1N=C(NC(=O)c2ccc(Cc3cccc(Cl)c3)nn2)CCC1=O` [Compound 190, 6-(3-chlorobenzyl)-N-(1-methyl-6-oxo-1,4,5,6-tetrahydropyridazin-3-yl)pyridazine-3-carboxamide], the IC50 on human SCD5 is 33 µM; at human SCD1, over 45 µM.

In the case of `CN1N=C(C(=O)Nc2ccc(Cc3cccc(Br)c3)nn2)CCC1=O` [Compound 191, N-(6-(3-bromobenzyl)pyridazin-3-yl)-1-methyl-6-oxo-1,4,5,6-tetrahydropyridazine-3-carboxamide], the IC50 at human SCD5 was 2.68 µM; on human SCD1 it was over 45 µM.

In the case of `CN1N=C(C(=O)Nc2ccc(Cc3ccc(F)c(Cl)c3)nn2)CCC1=O` [Compound 192, N-(6-(3-chloro-4-fluorobenzyl)pyridazin-3-yl)-1-methyl-6-oxo-1,4,5,6-tetrahydropyridazine-3-carboxamide], the IC50 on human SCD5 came out at 1.31 µM; at human SCD1, 11.9 µM.

On to `CN1N=C(C(=O)Nc2ccc(Cc3cccc(C(F)(F)F)c3)nn2)CCC1=O` [Compound 194, 1-methyl-6-oxo-N-(6-(3-(trifluoromethyl)benzyl)pyridazin-3-yl)-1,4,5,6-tetrahydropyridazine-3-carboxamide], for which the figures for the IC50 on human SCD5 and on human SCD1 were 1.54 µM and over 45 µM, respectively.

Regarding `Cn1nc(C(=O)Nc2ccc(Cc3cccc(F)c3)nn2)ccc1=O` [Compound 195, N-(6-(3-fluorobenzyl)pyridazin-3-yl)-1-methyl-6-oxo-1,6-dihydropyridazine-3-carboxamide], the IC50 at human SCD5 came to 2.31 µM; on human SCD1 it was 15.9 µM.

`Cn1nc(C(=O)Nc2ccc(Cc3cccc(Cl)c3)nn2)ccc1=O` [Compound 196, N-(6-(3-chlorobenzyl)pyridazin-3-yl)-1-methyl-6-oxo-1,6-dihydropyridazine-3-carboxamide]: the IC50 worked out at 1.56 µM on human SCD5 and 5.58 µM at human SCD1.

For the molecule `CN1N=C(C(=O)Nc2ccc(Cc3cccc(Cl)c3)nn2)CCC1=O` [Compound 197, N-(6-(3-chlorobenzyl)pyridazin-3-yl)-1-methyl-6-oxo-1,4,5,6-tetrahydropyridazine-3-carboxamide], the values for the half-inhibitory concentration (IC50) on human SCD5 and on human SCD1 were 0.37 µM and 2.75 µM, respectively.

For the molecule `CN1N=C(C(=O)Nc2ccc(CC3CCCCC3)nn2)CCC1=O` [Compound 198, N-(6-(cyclohexylmethyl)pyridazin-3-yl)-1-methyl-6-oxo-1,4,5,6-tetrahydropyridazine-3-carboxamide], the IC50 on human SCD5 is 7.18 µM; on human SCD1 it was over 45 µM.

On to `CCn1nc(C(=O)Nc2ccc(Cc3cccc(F)c3)nn2)ccc1=O` [Compound 199, 1-ethyl-N-(6-(3-fluorobenzyl)pyridazin-3-yl)-6-oxo-1,6-dihydropyridazine-3-carboxamide], for which the IC50 at human SCD5 was 5.8 µM; at human SCD1, over 45 µM.

Consider `Cn1nc(C(=O)Nc2ncc(Cc3cccc(F)c3)s2)ccc1=O` [Compound 202, N-(5-(3-fluorobenzyl)thiazol-2-yl)-1-methyl-6-oxo-1,6-dihydropyridazine-3-carboxamide], for which the IC50 at human SCD5 and at human SCD1 was 0.02 µM in each case.

Turning to `COC(c1cccc(F)c1)c1cnc(NC(=O)C2=NN(C)C(=O)CC2)s1` (centres unmarked) [Compound 204, N-(5-((3-fluorophenyl)(methoxy)methyl)thiazol-2-yl)-1-methyl-6-oxo-1,4,5,6-tetrahydropyridazine-3-carboxamide], the half-maximal inhibitory concentration (IC50) is 27.9 µM at human SCD5 and over 45 µM at human SCD1.

For the molecule `CN1N=C(C(=O)Nc2ncc(C(O)c3cccc(F)c3)s2)CCC1=O` (centres unmarked) [Compound 205, N-(5-((3-fluorophenyl)(hydroxy)methyl)thiazol-2-yl)-1-methyl-6-oxo-1,4,5,6-tetrahydropyridazine-3-carboxamide], the results for the IC50 at human SCD5 and on human SCD1 were 29.4 µM and over 45 µM, respectively.

In the case of `CN1N=C(C(=O)Nc2ncc(Cc3ccccc3F)s2)CCC1=O` [Compound 206, N-(5-(2-fluorobenzyl)thiazol-2-yl)-1-methyl-6-oxo-1,4,5,6-tetrahydropyridazine-3-carboxamide], the IC50 was 2.51 µM at human SCD5 and 3.36 µM on human SCD1.

As for `CN1N=C(C(=O)Nc2ncc(Cc3cccc(Cl)c3)s2)CCC1=O` [Compound 207, N-(5-(3-chlorobenzyl)thiazol-2-yl)-1-methyl-6-oxo-1,4,5,6-tetrahydropyridazine-3-carboxamide], the figures for the IC50 at human SCD5 and at human SCD1 were 0.01 µM and 0.09 µM, respectively.

Regarding `CN1N=C(C(=O)Nc2ncc(Cc3ccc(F)cc3)s2)CCC1=O` [Compound 208, N-(5-(4-fluorobenzyl)thiazol-2-yl)-1-methyl-6-oxo-1,4,5,6-tetrahydropyridazine-3-carboxamide], the IC50 turned out to be 0.05 µM on human SCD5 and 0.13 µM on human SCD1.

With `CN1N=C(C(=O)Nc2ncc(Cc3cccc(C#N)c3)s2)CCC1=O` [Compound 209, N-(5-(3-cyanobenzyl)thiazol-2-yl)-1-methyl-6-oxo-1,4,5,6-tetrahydropyridazine-3-carboxamide], the concentration for half-maximal inhibition (IC50) stood at 2.45 µM on human SCD5 and 1.69 µM at human SCD1.

In the case of `COc1cccc(Cc2cnc(NC(=O)c3ccc(=O)n(C)n3)s2)c1` [Compound 212, N-(5-(3-methoxybenzyl)thiazol-2-yl)-1-methyl-6-oxo-1,6-dihydropyridazine-3-carboxamide], the IC50 at human SCD5 worked out at 0.04 µM; on human SCD1 it was 0.15 µM.

The record behind these values is patent US20230078764A1 (Yumanity Therapeutics, Inc., priority 2019, published 2023).
